According to patent US20220041613A1, “TYROSINE KINASE INHIBITOR COMPOSITIONS, METHODS OF MAKING AND METHODS OF USE” (Black Diamond Therapeutics, Inc., priority 2018, published 2022):
Entries after “also recorded” stand apart in the source; their conditions may differ. Read-outs that look alike come from different tables or passages of the source.

Legend:
[1] = molecular target: T1, EGFR WT (Homo sapiens, UniProt P00533); experiment: Assay for cell proliferation (CellTiterGlo), Activity for Inhibiting EGFR; format: cell-based; details: potency code, 3 days drug
T1 construct: endogenous in cells; host or cells: A431 (+H292)

[2] = molecular target: T2, EGFR V3 (EGFR-Viii) (Homo sapiens, UniProt P00533, DELINS30-297G); experiment: Assay for cell proliferation (BaF3 transformants, CellTiterGlo), Activity for Inhibiting EGFR; format: cell-based; details: potency code, 3 days drug
T2 construct: expressed in transfected cells; host or cells: BaF3 (murine pro-B), retroviral pMXs-IRES-Blasticidin, selected for IL-3 independence
Experimental: (§1) Retroviral Production: EGFR mutants were subcloned into pMXs-IRES-Blasticidin (RTV-016, Cell Biolabs, San Diego, Calif.). Retroviral expression vector retrovirus was produced by transient transfection of HEK 293T cells with the retroviral EGFR mutant expression vector pMXs-IRES-Blasticidin (RTV-016, Cell Biolabs), pCMV-Gag-Pol vector and pCMV-VSV-G-Envelope vector. HEK 293T/17 cells were plated in 100 mm collagen coated plate (354450, Corning Life Sciences, Tewksbury, Mass.) (4×10^5 per plate) and incubated overnight. The next day, retroviral plasmids (3 μg of EGFR mutant, 1.0 μg of pCMV-Gag-Pol and 0.5 μg pCMV-VSV-G) were mixed in 500 μl of Optimem (31985, Life Technologies). The mixture was incubated at room temperature for 5 min and then added to Optimem containing transfection reagent Lipofectamine (11668, Invitrogen) and incubated for 20 minutes. Mixture was then added dropwise to HEK 293T cells. The next day the medium was replaced with fresh culture medium and retrovirus was harvested @ 24 and 48 hrs. Generation of EGFR mutant stable cell lines: BaF3 cells (1.5E5 cells) were infected with 1 ml of viral supernatant supplemented with 8 μg/ml polybrene by centrifuging for 30 min at 1000 rpm. Cells were placed in a 37° C. incubator overnight. Cells were then spun for 5 minutes to pellet the cells. Supernatant was removed and cells re-infected a fresh 1 ml of viral supernatant supplemented with 8 μg/ml polybrene by centrifuging for 30 min at 1000 rpm. Cells were placed in 37° C. incubator overnight. […] After 48 hours cells were selected for retroviral infection in 10 μg/ml Blasticidin for one week. Blasticidin resistant populations were washed twice in phosphate buffered saline before plating in media lacking IL-3 to select for IL-3 independent growth.
as §1, with “fresh 1 m1 of viral” for “fresh 1 ml of viral”

[3] = molecular target: T3, HER2 WT (Homo sapiens, UniProt P04626); experiment: Assay for cell proliferation (CellTiterGlo), Activity for Inhibiting HER2; format: cell-based
T3 construct: endogenous in cells; host or cells: BT474

[4] = molecular target: T4, HER2 S310F (Homo sapiens, UniProt P04626, S310F); experiment: Assay for cell proliferation (BaF3 transformants, CellTiterGlo), Activity for Inhibiting HER2; format: cell-based; details: potency code, 3 days drug
T4 construct: expressed in transfected cells; host or cells: BaF3 (murine pro-B) transformants

[5] = tested on: GBM; details: cited from earlier work; for clinical benefit in GBM: >30 clinical trials and >1500 patients
[6] = tested on: covalently-activated EGFR variants (EGFR-Viii, EGFR-Vii, EGFR-Vvi, EGFR-A289V); experiment: Western blot under non-reducing conditions: monomeric versus covalently dimerized and phosphorylated EGFR; format: cell-based, Homo sapiens
[7] = tested on: BaF3 cells expressing EGFR-Viii, EGFR-Vii or EGFR-A289V; experiment: Proliferation of BaF3 cells expressing covalently-activated EGFR; format: cell-based, murine
[8] = molecular target: T5, EGFR NPH (Homo sapiens, UniProt P00533, INS773NPH); experiment: Assay for cell proliferation (BaF3 transformants, CellTiterGlo), Activity for Inhibiting EGFR; format: cell-based; details: potency code, 3 days drug
T5 construct: expressed in transfected cells; host or cells: BaF3 (murine pro-B), retroviral pMXs-IRES-Blasticidin, selected for IL-3 independence
Experimental: as §1
as §1, with “fresh 1 m1 of viral” for “fresh 1 ml of viral”

[9] = molecular target: T6, EGFR SVD (Homo sapiens, UniProt P00533, INS770SVD); experiment: as above; format: cell-based; details: potency code, 3 days drug
T6 construct: expressed in transfected cells; host or cells: BaF3 (murine pro-B), retroviral pMXs-IRES-Blasticidin, selected for IL-3 independence
Experimental: as §1
as §1, with “fresh 1 m1 of viral” for “fresh 1 ml of viral”

[10] = molecular target: T7, HER2 YVMA (Homo sapiens, UniProt P04626, INS775YVMA); experiment: Assay for cell proliferation (BaF3 transformants, CellTiterGlo), Activity for Inhibiting HER2; format: cell-based; details: potency code, 3 days drug
T7 construct: expressed in transfected cells; host or cells: BaF3 (murine pro-B) transformants

[11] = 'about ... or less', read-out: IC50 value for inhibiting wild-type HER2
[12] = Table B (Example 2), potency code, 3 days drug, read-out: HER2 WT
[13] = Table B, potency code, 3 days drug, read-out: HER2 WT
[14] = phase 2 study, erlotinib in combination with radiation and temozolomide
[15] = covalent dimers of covalently-activated EGFR variants, cells expressing EGFR-Vii and EGFR-A289V (FIG. 8)
[16] = sub-saturating concentrations, up to 72 hours

T5 sequence (P00533 with tags, fused parts or gaps INS773NPH): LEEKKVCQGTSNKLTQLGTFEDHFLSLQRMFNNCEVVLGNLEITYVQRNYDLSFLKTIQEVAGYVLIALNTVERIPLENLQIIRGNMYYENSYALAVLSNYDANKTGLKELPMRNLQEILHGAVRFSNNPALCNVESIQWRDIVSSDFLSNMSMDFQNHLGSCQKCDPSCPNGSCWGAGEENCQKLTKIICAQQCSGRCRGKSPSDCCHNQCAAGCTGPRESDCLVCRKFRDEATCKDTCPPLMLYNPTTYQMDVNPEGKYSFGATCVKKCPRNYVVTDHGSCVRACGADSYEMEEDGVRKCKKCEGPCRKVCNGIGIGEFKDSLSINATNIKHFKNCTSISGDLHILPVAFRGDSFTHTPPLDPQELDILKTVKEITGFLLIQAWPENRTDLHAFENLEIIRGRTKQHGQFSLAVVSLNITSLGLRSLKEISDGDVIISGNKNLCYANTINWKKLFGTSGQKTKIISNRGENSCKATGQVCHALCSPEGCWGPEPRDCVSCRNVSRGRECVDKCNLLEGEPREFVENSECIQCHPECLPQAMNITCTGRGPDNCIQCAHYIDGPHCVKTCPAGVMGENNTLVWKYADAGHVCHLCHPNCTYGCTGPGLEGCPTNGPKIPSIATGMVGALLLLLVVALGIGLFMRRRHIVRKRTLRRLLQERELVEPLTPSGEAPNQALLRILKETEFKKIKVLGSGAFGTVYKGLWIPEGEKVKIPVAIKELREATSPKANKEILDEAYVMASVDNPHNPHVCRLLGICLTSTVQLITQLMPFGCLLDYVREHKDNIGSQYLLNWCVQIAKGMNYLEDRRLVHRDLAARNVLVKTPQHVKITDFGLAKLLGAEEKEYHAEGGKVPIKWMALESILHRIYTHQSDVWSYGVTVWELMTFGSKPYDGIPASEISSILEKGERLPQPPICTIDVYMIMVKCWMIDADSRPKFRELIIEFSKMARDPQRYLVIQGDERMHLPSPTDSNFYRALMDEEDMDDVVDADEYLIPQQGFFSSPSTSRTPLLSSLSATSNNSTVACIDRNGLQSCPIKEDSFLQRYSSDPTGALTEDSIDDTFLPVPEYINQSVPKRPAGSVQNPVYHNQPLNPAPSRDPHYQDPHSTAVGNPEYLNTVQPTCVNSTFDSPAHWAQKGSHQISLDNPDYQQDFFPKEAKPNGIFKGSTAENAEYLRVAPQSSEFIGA
T7 sequence (P04626 with tags, fused parts or gaps INS775YVMA): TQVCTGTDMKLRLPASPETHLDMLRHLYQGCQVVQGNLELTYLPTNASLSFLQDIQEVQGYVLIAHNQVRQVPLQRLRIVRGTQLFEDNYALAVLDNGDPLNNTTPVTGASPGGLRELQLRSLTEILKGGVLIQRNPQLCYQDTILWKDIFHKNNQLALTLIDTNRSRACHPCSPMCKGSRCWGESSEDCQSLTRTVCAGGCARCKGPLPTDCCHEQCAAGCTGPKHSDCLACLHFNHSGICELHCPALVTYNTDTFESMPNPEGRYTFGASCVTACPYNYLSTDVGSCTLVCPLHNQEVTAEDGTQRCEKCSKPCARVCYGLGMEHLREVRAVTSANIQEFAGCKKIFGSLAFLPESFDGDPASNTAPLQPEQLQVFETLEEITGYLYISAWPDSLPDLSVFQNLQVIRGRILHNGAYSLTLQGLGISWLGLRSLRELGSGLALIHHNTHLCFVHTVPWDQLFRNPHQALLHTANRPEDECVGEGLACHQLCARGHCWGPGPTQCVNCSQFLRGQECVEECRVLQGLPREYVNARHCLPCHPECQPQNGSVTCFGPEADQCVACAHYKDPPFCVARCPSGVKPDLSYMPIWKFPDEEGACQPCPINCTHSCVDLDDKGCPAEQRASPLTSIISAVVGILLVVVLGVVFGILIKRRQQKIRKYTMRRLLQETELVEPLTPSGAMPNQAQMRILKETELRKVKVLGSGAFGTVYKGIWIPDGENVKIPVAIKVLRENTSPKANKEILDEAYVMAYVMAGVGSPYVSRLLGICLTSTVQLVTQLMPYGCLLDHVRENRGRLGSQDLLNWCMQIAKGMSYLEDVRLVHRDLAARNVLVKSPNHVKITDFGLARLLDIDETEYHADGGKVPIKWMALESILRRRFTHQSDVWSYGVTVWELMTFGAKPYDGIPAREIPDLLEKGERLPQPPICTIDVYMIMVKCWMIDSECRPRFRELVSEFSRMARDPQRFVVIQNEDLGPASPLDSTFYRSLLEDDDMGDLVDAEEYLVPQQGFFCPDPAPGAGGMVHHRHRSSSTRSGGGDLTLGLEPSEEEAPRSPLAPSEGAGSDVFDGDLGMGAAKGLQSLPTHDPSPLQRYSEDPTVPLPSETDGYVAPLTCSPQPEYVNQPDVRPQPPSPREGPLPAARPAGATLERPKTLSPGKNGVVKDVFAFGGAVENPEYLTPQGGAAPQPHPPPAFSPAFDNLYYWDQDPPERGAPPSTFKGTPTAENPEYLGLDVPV
T6 sequence (P00533 with tags, fused parts or gaps INS770SVD): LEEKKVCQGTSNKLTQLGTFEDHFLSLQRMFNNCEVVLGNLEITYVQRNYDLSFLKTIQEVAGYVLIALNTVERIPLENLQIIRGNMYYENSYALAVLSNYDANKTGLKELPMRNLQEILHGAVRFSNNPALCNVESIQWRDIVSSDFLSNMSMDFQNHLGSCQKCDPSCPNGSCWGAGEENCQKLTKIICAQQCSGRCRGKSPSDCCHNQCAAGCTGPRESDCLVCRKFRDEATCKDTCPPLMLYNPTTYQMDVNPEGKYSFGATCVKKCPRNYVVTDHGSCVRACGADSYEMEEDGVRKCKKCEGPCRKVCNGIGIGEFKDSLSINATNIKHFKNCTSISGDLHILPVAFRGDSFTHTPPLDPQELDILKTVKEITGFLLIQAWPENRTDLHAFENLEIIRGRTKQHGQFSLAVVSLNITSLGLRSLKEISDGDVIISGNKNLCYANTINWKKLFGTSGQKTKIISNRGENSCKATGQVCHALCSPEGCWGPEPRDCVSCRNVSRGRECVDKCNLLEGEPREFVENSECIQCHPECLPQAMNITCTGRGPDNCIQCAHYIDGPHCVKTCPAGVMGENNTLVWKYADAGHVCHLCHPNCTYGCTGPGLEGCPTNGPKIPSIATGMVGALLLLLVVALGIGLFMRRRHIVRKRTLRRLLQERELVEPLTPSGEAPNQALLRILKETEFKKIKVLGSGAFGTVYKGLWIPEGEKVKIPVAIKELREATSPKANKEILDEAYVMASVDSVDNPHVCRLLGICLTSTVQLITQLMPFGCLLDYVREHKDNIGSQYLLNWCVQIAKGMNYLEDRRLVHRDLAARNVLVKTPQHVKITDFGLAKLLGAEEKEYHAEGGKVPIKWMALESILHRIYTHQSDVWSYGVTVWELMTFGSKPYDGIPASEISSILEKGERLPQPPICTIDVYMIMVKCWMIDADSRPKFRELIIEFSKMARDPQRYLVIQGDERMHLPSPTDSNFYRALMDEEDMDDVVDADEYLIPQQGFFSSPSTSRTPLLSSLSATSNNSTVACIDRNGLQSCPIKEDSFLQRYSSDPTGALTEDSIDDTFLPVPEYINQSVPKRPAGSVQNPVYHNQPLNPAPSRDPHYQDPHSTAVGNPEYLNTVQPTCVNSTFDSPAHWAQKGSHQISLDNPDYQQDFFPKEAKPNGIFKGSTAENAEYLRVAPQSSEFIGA
T3 sequence (P04626 23-1255): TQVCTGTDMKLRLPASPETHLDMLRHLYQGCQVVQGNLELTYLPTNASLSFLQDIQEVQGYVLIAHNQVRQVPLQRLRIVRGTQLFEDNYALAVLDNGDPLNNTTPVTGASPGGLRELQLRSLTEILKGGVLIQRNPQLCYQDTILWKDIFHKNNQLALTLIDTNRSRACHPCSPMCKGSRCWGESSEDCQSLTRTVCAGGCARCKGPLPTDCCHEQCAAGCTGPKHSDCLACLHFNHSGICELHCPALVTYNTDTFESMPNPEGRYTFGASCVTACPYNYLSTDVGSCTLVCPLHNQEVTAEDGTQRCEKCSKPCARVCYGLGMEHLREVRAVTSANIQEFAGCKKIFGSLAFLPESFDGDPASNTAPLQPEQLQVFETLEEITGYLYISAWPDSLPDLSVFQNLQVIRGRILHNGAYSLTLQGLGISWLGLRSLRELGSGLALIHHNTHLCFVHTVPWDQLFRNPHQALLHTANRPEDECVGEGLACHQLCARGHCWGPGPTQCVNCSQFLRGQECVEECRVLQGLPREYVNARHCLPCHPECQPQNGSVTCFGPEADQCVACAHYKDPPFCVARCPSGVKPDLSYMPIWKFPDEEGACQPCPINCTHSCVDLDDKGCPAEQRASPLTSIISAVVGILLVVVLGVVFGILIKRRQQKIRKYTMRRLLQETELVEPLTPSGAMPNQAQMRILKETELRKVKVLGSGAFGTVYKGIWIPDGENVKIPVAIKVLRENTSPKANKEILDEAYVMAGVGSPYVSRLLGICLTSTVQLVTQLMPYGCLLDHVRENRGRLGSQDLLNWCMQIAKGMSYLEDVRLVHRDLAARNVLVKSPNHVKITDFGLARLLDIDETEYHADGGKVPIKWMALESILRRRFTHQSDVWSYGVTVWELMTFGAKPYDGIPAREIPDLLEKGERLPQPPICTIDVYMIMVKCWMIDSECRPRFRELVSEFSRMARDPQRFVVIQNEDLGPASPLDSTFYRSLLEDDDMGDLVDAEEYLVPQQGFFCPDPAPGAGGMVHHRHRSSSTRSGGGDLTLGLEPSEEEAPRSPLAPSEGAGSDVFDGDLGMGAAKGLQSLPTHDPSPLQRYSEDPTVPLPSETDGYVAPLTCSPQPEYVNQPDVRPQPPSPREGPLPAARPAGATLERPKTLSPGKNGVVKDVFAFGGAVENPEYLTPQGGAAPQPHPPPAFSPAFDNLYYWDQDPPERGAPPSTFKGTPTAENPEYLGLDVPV

IC50 ([1]; Table A (Example 2))	IC50 ([1]; Table A)	IC50 ([2]; Table A (Example 2))	IC50 ([2]; Table A)	IC50 [3, 11]	IC50 [3, 12]	IC50 [3, 13]	IC50 ([4]; Table B (Example 2))	IC50 ([4]; Table B)	SMILES	other results
500 to 1000 nM	500 to 1000 nM	30 to 50 nM	30 to 50 nM	≤ 20 nM	10 to 20 nM	10 to 20 nM	100 to 200 nM	100 to 200 nM	C=CC(=O)Nc1cc2c(Nc3ccc4c(cnn4Cc4cccc(F)c4)c3)ncnc2cc1N(C)CCCN1CCOCC1 [compound 4]	–
–	–	–	–	–	–	–	–	–	C#Cc1cccc(Nc2ncnc3cc(OCCOC)c(OCCOC)cc23)c1 [Erlotinib, erlotinib]	clinical benefit in GBM [5]: failed to produce any benefit; median OS (mOS) [5, 14]: 8.6 months; median PFS (mPFS) [5, 14]: 2.8 months
–	–	–	–	–	–	–	–	–	C=CC(=O)Nc1ccc2ncnc(Nc3ccc(OCc4cccc(F)c4)c(Cl)c3)c2c1 [AST-1306]	Induced dimers [6, 15]: No
–	–	–	–	–	–	–	–	–	C=CC(=O)Nc1cccc(Nc2nc(Nc3ccc(N4CCN(C(C)=O)CC4)cc3OC)ncc2C(F)(F)F)c1 [CO-1686]	Induced dimers [6]: Yes
–	–	–	–	–	–	–	–	–	C=CC(=O)Nc1cccc(Oc2nc(Nc3ccc(N4CCN(C)CC4)cc3OC)ncc2Cl)c1 [WZ4002]	Induced dimers [6]: Yes; proliferation of cells expressing covalently-activated EGFR (paradoxical activation) [7, 16]: biphasic effect on proliferation; also recorded: paradoxical stimulation of proliferation
–	–	–	–	–	–	–	–	–	C=CC(=O)Nc1cccc(Oc2nc(Nc3ccc(N4CCN(C)CC4)cc3)ncc2Cl)c1 [WZ3146]	Induced dimers [6, 15]: Yes; proliferation of cells expressing covalently-activated EGFR (paradoxical activation) [7, 16]: biphasic effect on proliferation; also recorded: paradoxical stimulation of proliferation
–	–	–	–	–	–	–	–	–	CCOc1cc2ncc(C#N)c(Nc3ccc(F)c(Cl)c3)c2cc1NC(=O)/C=C/CN(C)C [Pelitinib, pelitinib]	Induced dimers [6]: Yes
300 to 500 nM	300 to 500 nM	30 to 50 nM	30 to 50 nM	≤ 10 nM	5 to 10 nM	5 to 10 nM	10 to 20 nM	10 to 20 nM	C=CC(=O)Nc1cc2c(Nc3ccc4c(cnn4Cc4cccc(F)c4)c3)ncnc2cc1C#CC(C)(C)N1CCN(C)CC1 [compound 9]	IC50 ([8]; Table A (Example 2)): 30 to 50 nM; IC50 ([8]; Table A): 30 to 50 nM; IC50 ([9]; Table A (Example 2)): 30 to 50 nM; IC50 ([9]; Table A): 30 to 50 nM; IC50 ([10]; Table B (Example 2)): 50 to 100 nM; IC50 ([10]; Table B): 50 to 100 nM
–	–	–	–	–	–	–	–	–	C=CC(=O)Nc1cccc(Sc2nc(Nc3ccc(N4CCN(C)CC4)cc3)ncc2Cl)c1 [WZ8040]	Induced dimers [6, 15]: Yes; proliferation of cells expressing covalently-activated EGFR (paradoxical activation) [7, 16]: biphasic effect on proliferation; also recorded: paradoxical stimulation of proliferation
500 to 1000 nM	500 to 1000 nM	50 to 100 nM	50 to 100 nM	–	20 to 30 nM	20 to 30 nM	100 to 200 nM	100 to 200 nM	C=CC(=O)Nc1cc2c(Nc3ccc4c(cnn4Cc4cccc(F)c4)c3)ncnc2cc1N(C)CCN(C)C [compound 1]	–
300 to 500 nM	300 to 500 nM	100 to 200 nM	100 to 200 nM	≤ 20 nM	10 to 20 nM	10 to 20 nM	100 to 200 nM	100 to 200 nM	C=CC(=O)Nc1cc2c(Nc3ccc4c(cnn4Cc4cccc(F)c4)c3)ncnc2cc1N(C)CCCN1CC2CC1CO2 (stereo not shown) [compound 7]	–
> 1000 nM	> 1000 nM	30 to 50 nM	30 to 50 nM	–	20 to 30 nM	20 to 30 nM	100 to 200 nM	100 to 200 nM	C=CC(=O)Nc1cc2c(Nc3ccc4c(cnn4Cc4cccc(F)c4)c3)ncnc2cc1N(C)CCN1CCOCC1 [compound 2]	–
100 to 200 nM	100 to 200 nM	30 to 50 nM	30 to 50 nM	≤ 6 nM	< 5 nM	< 5 nM	10 to 20 nM	10 to 20 nM	C=CC(=O)Nc1cc2c(Nc3ccc4c(cnn4Cc4cccc(F)c4)c3)ncnc2cc1OCCCN1CC2CC1CO2 (stereo not shown) [compound 6]	–
–	–	–	–	–	–	–	–	–	COc1cc2ncnc(Nc3ccc(F)c(Cl)c3)c2cc1OCCCN1CCOCC1 [Gefitinib, gefinitinib]	clinical benefit in GBM [5]: failed to produce any benefit
100 to 200 nM	100 to 200 nM	20 to 30 nM	20 to 30 nM	≤ 10 nM	5 to 10 nM	5 to 10 nM	10 to 20 nM	10 to 20 nM	C=CC(=O)Nc1cc2c(Nc3ccc4c(cnn4Cc4cccc(F)c4)c3)ncnc2cc1OCCN1CCCCC1 [compound 8]	IC50 ([8]; Table A (Example 2)): 30 to 50 nM; IC50 ([8]; Table A): 30 to 50 nM; IC50 ([9]; Table A (Example 2)): 30 to 50 nM; IC50 ([9]; Table A): 30 to 50 nM; IC50 ([10]; Table B (Example 2)): 100 to 200 nM; IC50 ([10]; Table B): 100 to 200 nM
–	–	–	–	–	–	–	–	–	CCOc1cc2ncc(C#N)c(Nc3ccc(OCc4cccc(F)c4)c(Cl)c3)c2cc1NC(=O)/C=C/CN(C)C [HKI-357]	Induced dimers [6, 15]: No
–	–	–	–	–	–	–	–	–	COc1cc2ncnc(Nc3ccc(F)c(Cl)c3)c2cc1NC(=O)/C=C/CN1CCCCC1 [Dacomitinib, dacomitinib]	Induced dimers [6, 15]: Yes
–	–	–	–	–	–	–	–	–	CN(C)C/C=C/C(=O)Nc1cc2c(Nc3ccc(F)c(Cl)c3)ncnc2cc1C#CC1[C@H]2COC[C@@H]12 (stereo partly shown) [NT-113]	formation of covalent EGFR dimers ([6]; cells expressing covalently-activated EGFR variants, non-reducing conditions): induces dimerization; proliferation of cells expressing covalently-activated EGFR (paradoxical activation) [7, 16]: no evidence for increased cellular proliferation
200 to 300 nM	200 to 300 nM	100 to 200 nM	100 to 200 nM	≤ 10 nM	5 to 10 nM	5 to 10 nM	100 to 200 nM	100 to 200 nM	C=CC(=O)Nc1cc2c(Nc3ccc4c(cnn4Cc4cccc(F)c4)c3)ncnc2cc1NCCN1CCOCC1 [compound 5]	–
–	–	–	–	–	–	–	–	–	CCOc1cc2ncc(C#N)c(Nc3ccc(OCc4ccccn4)c(Cl)c3)c2cc1NC(=O)/C=C/CN(C)C [Neratinib, neratinib]	proliferation of cells expressing covalently-activated EGFR (paradoxical activation) [7]: devoid of paradoxical activation
100 to 200 nM	100 to 200 nM	20 to 30 nM	20 to 30 nM	≤ 6 nM	< 5 nM	< 5 nM	20 to 30 nM	20 to 30 nM	C=CC(=O)Nc1cc2c(Nc3ccc4c(cnn4Cc4cccc(F)c4)c3)ncnc2cc1OCCN(C)C [compound 10]	IC50 ([8]; Table A (Example 2)): 30 to 50 nM; IC50 ([8]; Table A): 30 to 50 nM; IC50 ([9]; Table A (Example 2)): 30 to 50 nM; IC50 ([9]; Table A): 30 to 50 nM; IC50 ([10]; Table B (Example 2)): 50 to 100 nM; IC50 ([10]; Table B): 50 to 100 nM
